Assays:
[1] = test system: PSMA-expressing PC3-PIP cells; experiment: Cellular uptake and internalization in PSMA-expressing PC3-PIP cells; type: cell-based
Description: The PSMA binding scaffold of PSMA binds irreversibly to the extracellular enzymatic domain of PSMA leading to rapid internalization by PSMA-expressing cancer cells. Tumor cell uptake of CTT1403 is ˜84% after just 2½ hours (FIG. 1), compared to less than 40% tumor cell uptake of ^177Lu-PSMA-617 (structure shown below), in PSMA-expressing PC3-PIP cells.
Given that 99% of cell bound CTT1403 is internalized, compared to just 15% of ^177Lu-PSMA-617, targeting by CTT1403 is expected to confer a significant therapeutic advantage. This greater uptake will allow treatment of smaller tumors for a longer time. Both irreversible binding and cellular internalization increases exposure of target tissue to the therapeutic agent. Greater accumulation in the target tissue will permit a lower efficacious dose and/or dosing frequency, thus reducing a patient's total clinical exposure to the radionuclide and improving the therapeutic index.

[2] = Kidney dosimetry by SPECT/CT or SPECT/MRI in patients; type: in vivo, human
Description: CTT1403 localization in various organs is accomplished by estimating dosimetry using SPECT/CT or SPECT/MRI imaging of the radioisotope component (using the gamma particle emission) of CTT1403, ^177Lu, up to 8 days after the first dose. […] Preclinical studies in rats with CTT1403 identified the kidneys as the dose limiting organ. Table 2, below, summarizes kidney dosimetry calculated from the first 15 patients enrolled in the study after receipt of escalating doses of CTT1403 and contrasts it with the predicted kidney exposure from rat studies. […] Preclinical studies in rats estimated expected kidney exposure of ˜5.2 Gy/GBq. […] CTT1403 may be sequestered in tumors and under exposing the kidney.

[3] = patient 1, injected activity 0.73 GBq (19.6 mCi)
[4] = patient 2, injected activity 1.50 GBq (40.5 mCi)
[5] = patient 3, injected activity 2.03 GBq (54.8 mCi)
[6] = patient 4, injected activity 3.00 GBq (81.1 mCi)
[7] = patient 5, injected activity 2.95 GBq (79.8 mCi)
[8] = patient 6, injected activity 2.98 GBq (80.5 mCi)
[9] = patient 7, injected activity 4.48 GBq (121.1 mCi)
[10] = patient 8, injected activity 4.52 GBq (122.2 mCi)
[11] = patient 9, injected activity 3.53 GBq (95.5 mCi)
[12] = patient 10, injected activity 4.48 GBq (121.2 mCi)
[13] = patient 11, injected activity 5.66 GBq (153.0 mCi)
[14] = patient 12, injected activity 5.99 GBq (162.0 mCi)
[15] = patient 13, injected activity 5.99 GBq (162.0 mCi)
[16] = patient 14, injected activity 7.98 GBq (215.7 mCi)
[17] = patient 15, injected activity 7.77 GBq (210.0 mCi)

O=C(O)CC[C@H](NP(=O)(O)OCCC[C@H](NC(=O)CC[C@H](NC(=O)CCCCCNC(=O)CCC(NC(=O)CCOCCOCCOCCOCCNC(=O)CCC(=O)N1Cc2ccccc2-c2c(nnn2CCCNC(=O)CN2CCN3CCN4CCN(CC2)CC(=O)[O][177Lu]([O]C(=O)C3)[O]C(=O)C4)-c2ccccc21)C(=O)NC(CCCCNC(=O)CCCc1ccc(I)cc1)C(=O)O)C(=O)O)C(=O)O)C(=O)O (stereo partly drawn) [CTT1403]
cell bound agent that is internalized ([1]; PSMA-expressing PC3-PIP cells): 99%
Tumor cell uptake ([1]; after 2½ hours, PSMA-expressing PC3-PIP cells (FIG. 1)): ~84%
Kidney dose, Dose Gy/GBq ([2]; CTT1403 (7.5 GBq +/− 10%)): 0.689 Gy/GBq
Kidney dose, Mean Dose (Gy) ([2]; CTT1403 (7.5 GBq +/− 10%)): 4.895 Gy
Kidney dosimetry calculated from the first 15 patients ([2]; first 15 patients enrolled, escalating doses): 0.687 Gy/GBq
factor by which clinical kidney dosimetry is lower than predicted by rat studies ([2]; first 15 patients vs rat prediction): ~10
absorbed dose (Gy) - L. kidney [2, 3]: 0.441 Gy
absorbed dose (Gy) - R. kidney [2, 3]: 0.430 Gy
absorbed dose per GBq (Gy/GBq) - L. kidney [2, 3]: 0.608 Gy/GBq
absorbed dose per GBq (Gy/GBq) - R. kidney [2, 3]: 0.593 Gy/GBq
absorbed dose (Gy) - L. kidney [2, 4]: 0.915 Gy
absorbed dose (Gy) - R. kidney [2, 4]: 0.876 Gy
absorbed dose per GBq (Gy/GBq) - L. kidney [2, 4]: 0.610 Gy/GBq
absorbed dose per GBq (Gy/GBq) - R. kidney [2, 4]: 0.584 Gy/GBq
absorbed dose (Gy) - L. kidney [2, 5]: 1.54 Gy
absorbed dose (Gy) - R. kidney [2, 5]: 2.07 Gy
absorbed dose per GBq (Gy/GBq) - L. kidney [2, 5]: 0.757 Gy/GBq
absorbed dose per GBq (Gy/GBq) - R. kidney [2, 5]: 1.020 Gy/GBq
absorbed dose (Gy) - L. kidney [2, 6]: 1.97 Gy
absorbed dose (Gy) - R. kidney [2, 6]: 1.70 Gy
absorbed dose per GBq (Gy/GBq) - L. kidney [2, 6]: 0.655 Gy/GBq
absorbed dose per GBq (Gy/GBq) - R. kidney [2, 6]: 0.565 Gy/GBq
absorbed dose (Gy) - L. kidney [2, 7]: 4.41 Gy
absorbed dose (Gy) - R. kidney [2, 7]: 4.84 Gy
absorbed dose per GBq (Gy/GBq) - L. kidney [2, 7]: 1.494 Gy/GBq
absorbed dose per GBq (Gy/GBq) - R. kidney [2, 7]: 1.638 Gy/GBq
absorbed dose (Gy) - L. kidney [2, 8]: 2.75 Gy
absorbed dose (Gy) - R. kidney [2, 8]: 2.65 Gy
absorbed dose per GBq (Gy/GBq) - L. kidney [2, 8]: 0.922 Gy/GBq
absorbed dose per GBq (Gy/GBq) - R. kidney [2, 8]: 0.889 Gy/GBq
absorbed dose (Gy) - L. kidney [2, 9]: 2.54 Gy
absorbed dose (Gy) - R. kidney [2, 9]: 2.83 Gy
absorbed dose per GBq (Gy/GBq) - L. kidney [2, 9]: 0.567 Gy/GBq
absorbed dose per GBq (Gy/GBq) - R. kidney [2, 9]: 0.632 Gy/GBq
absorbed dose (Gy) - L. kidney [2, 10]: 3.45 Gy
absorbed dose (Gy) - R. kidney [2, 10]: 3.54 Gy
absorbed dose per GBq (Gy/GBq) - L. kidney [2, 10]: 0.764 Gy/GBq
absorbed dose per GBq (Gy/GBq) - R. kidney [2, 10]: 0.784 Gy/GBq
absorbed dose (Gy) - L. kidney [2, 11]: 1.71 Gy
absorbed dose (Gy) - R. kidney [2, 11]: 1.85 Gy
absorbed dose per GBq (Gy/GBq) - L. kidney [2, 11]: 0.484 Gy/GBq
absorbed dose per GBq (Gy/GBq) - R. kidney [2, 11]: 0.522 Gy/GBq
absorbed dose (Gy) - L. kidney [2, 12]: 2.26 Gy
absorbed dose (Gy) - R. kidney [2, 12]: 2.75 Gy
absorbed dose per GBq (Gy/GBq) - L. kidney [2, 12]: 0.505 Gy/GBq
absorbed dose per GBq (Gy/GBq) - R. kidney [2, 12]: 0.612 Gy/GBq
absorbed dose (Gy) - L. kidney [2, 13]: 3.32 Gy
absorbed dose (Gy) - R. kidney [2, 13]: 3.08 Gy
absorbed dose per GBq (Gy/GBq) - L. kidney [2, 13]: 0.587 Gy/GBq
absorbed dose per GBq (Gy/GBq) - R. kidney [2, 13]: 0.543 Gy/GBq
absorbed dose (Gy) - L. kidney [2, 14]: 3.15 Gy
absorbed dose (Gy) - R. kidney [2, 14]: 2.81 Gy
absorbed dose per GBq (Gy/GBq) - L. kidney [2, 14]: 0.525 Gy/GBq
absorbed dose per GBq (Gy/GBq) - R. kidney [2, 14]: 0.469 Gy/GBq
absorbed dose (Gy) - L. kidney [2, 15]: 2.65 Gy
absorbed dose (Gy) - R. kidney [2, 15]: 2.50 Gy
absorbed dose per GBq (Gy/GBq) - L. kidney [2, 15]: 0.443 Gy/GBq
absorbed dose per GBq (Gy/GBq) - R. kidney [2, 15]: 0.417 Gy/GBq
absorbed dose (Gy) - L. kidney [2, 16]: 5.53 Gy
absorbed dose (Gy) - R. kidney [2, 16]: 5.41 Gy
absorbed dose per GBq (Gy/GBq) - L. kidney [2, 16]: 0.693 Gy/GBq
absorbed dose per GBq (Gy/GBq) - R. kidney [2, 16]: 0.678 Gy/GBq
absorbed dose (Gy) - L. kidney [2, 17]: 4.89 Gy
absorbed dose (Gy) - R. kidney [2, 17]: 3.75 Gy
absorbed dose per GBq (Gy/GBq) - L. kidney [2, 17]: 0.629 Gy/GBq
absorbed dose per GBq (Gy/GBq) - R. kidney [2, 17]: 0.482 Gy/GBq

— patent publication US20230064292A1, “METHODS OF TREATING PSMA-POSITIVE CANCER USING RADIONUCLIDE THERAPY” (priority 2020, published 2023)
